Results: patent US20050175589A1, “Anti-neoplastic viral agents” (priority 2001, published 2005)

Key:
[1] = test system: Hct116 cells with homozygous deletion of p53
Procedure: (§1) (a) Sensitivity of colon cancer cell lines to 5-FU. Cells were stained four days after addition of the drug. (b to e, g) Cytopathic effect assays using 10-fold dilutions of virus starting from a concentration of 10 pfu/cell. Fresh medium was added four days after infection and cells were stained 5 (SW480), 7 (Hct116 and Hct116^−/−), or 8 (HT29 and HLF) days post-infection. (f) 5-FC was added either immediately after infection (early, E) or four days after infection (late, L). Cells were stained 8 days after infection.
(§2) Cells in six-well plates were infected with ten-fold dilutions of virus in DMEM. Two hours after infection, the medium was replaced with complete medium containing or not 100 μg/ml of 5-fluorocytosine (Sigma, St. Louis, USA). Four days after infection, new medium was added. Late addition of 5-FC was performed at that time. After five to eight days (see legend to FIG. 4), the cells were fixed with 4% formaldehyde in PBS and stained with crystal violet. For the sensitivity to 5-fluorouracil (Sigma, St. Louis, USA), the drug was added at various concentrations for four days before staining with crystal violet.

SW480 cells = test system: SW480 cells
Procedure: as §1, §2

SMILES: O=c1[nH]cc(F)c(=O)[nH]1 [5-FU, 5-fluorouracil]
- resistance of p53-deleted Hct116 cells to 5-FU relative to parental cells [1]: only slightly more resistant than the parental cells
- resistance of SW480 cells to 5-FU relative to the other cell lines (SW480 cells): at least 10 fold
